This passage reports IC50 results from US12649751B2 (Arcus Biosciences, Inc., priority 2022, dated 2026).

One assay has as its target HPK1 (Homo sapiens, UniProt Q92918). In words: HPK1 Biochemical Assay (ADP-Glo luminescence; low ATP 10 μM or high ATP 200 μM). The conditions noted are these: HPK1 ADP-Glo assay, high ATP (200 μM ATP, 5 nM HPK1); read-out: Biochemical Potency (high ATP). (In ADP-Glo the light output rises with the ADP produced.)
Assay [1] has as its system p-SLP-76 (Ser376) in Jurkat cells. In words: pSLP76 Cellular Assay (AlphaLISA SureFire Ultra p-SLP-76 (Ser376), anti-CD3 activated Jurkat cells). The assay is classed as cell-based. The conditions noted are these: Homo sapiens; pSLP76 (Ser376) AlphaLISA, anti-CD3 activated Jurkat cells; read-out: Cellular Potency. In outline: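 Jurkat cells, serum-starved overnight in Opti-MEM then in HBSS, preincubated 1 h at 37 °C with 22-point 2-fold compound dilutions, then stimulated with anti-CD3 (0.025 mg/ml added solution) for 45 min. Lysate p-SLP-76 (Ser376) measured by AlphaLISA at 570 nm; IC50 from 4-parameter logistic fit.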
A general note: Alpha assays give light when donor and acceptor beads are brought close together.

HPK1, sequence (Q92918 whole entry, species assumed): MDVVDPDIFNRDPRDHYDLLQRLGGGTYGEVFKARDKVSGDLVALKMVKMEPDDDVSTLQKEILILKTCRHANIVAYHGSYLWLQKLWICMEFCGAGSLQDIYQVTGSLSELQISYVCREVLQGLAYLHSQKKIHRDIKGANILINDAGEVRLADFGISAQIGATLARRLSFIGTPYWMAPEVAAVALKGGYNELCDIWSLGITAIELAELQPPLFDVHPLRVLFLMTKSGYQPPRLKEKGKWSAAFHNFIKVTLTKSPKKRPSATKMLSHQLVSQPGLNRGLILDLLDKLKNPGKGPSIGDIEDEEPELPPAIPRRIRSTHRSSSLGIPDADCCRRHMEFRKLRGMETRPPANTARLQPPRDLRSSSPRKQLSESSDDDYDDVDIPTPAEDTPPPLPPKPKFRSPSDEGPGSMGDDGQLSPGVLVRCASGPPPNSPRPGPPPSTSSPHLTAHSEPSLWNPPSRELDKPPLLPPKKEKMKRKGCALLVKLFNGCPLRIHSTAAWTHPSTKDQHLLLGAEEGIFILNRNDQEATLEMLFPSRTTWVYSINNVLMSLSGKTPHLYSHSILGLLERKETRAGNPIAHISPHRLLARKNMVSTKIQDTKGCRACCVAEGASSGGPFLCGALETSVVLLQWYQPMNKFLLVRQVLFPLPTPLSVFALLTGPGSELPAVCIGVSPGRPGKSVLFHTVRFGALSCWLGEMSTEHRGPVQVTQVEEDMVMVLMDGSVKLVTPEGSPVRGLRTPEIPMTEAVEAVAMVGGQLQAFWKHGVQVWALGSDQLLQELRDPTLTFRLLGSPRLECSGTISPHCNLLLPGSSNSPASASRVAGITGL

`CCN(CC)S(=O)(=O)c1cc(C)cc(-c2nc3cc(Nc4cc(C)nc(N5C[C@@H]6C[C@H]5CN6CCO)n4)ncc3s2)c1` [Example 343]: the IC50 was under 100 nM at HPK1 and 1000 to 5000 nM in assay [1].
Take `Cc1cc(Nc2cc3nc(-c4cccc(S(=O)(=O)N5CCCC5)c4)sc3cn2)nc(N2C[C@@H]3C[C@H]2CN3CCO)n1` [Example 344]: the IC50 (at HPK1; in assay [1]) was under 100 nM in each case.
`Cc1cc(-c2nc3cc(Nc4cc(C)nc(N5C[C@@H]6C[C@H]5CN6CCO)n4)ncc3s2)cc(N2CCCC2=O)c1` [Example 345]: the IC50 (on HPK1; in assay [1]) was under 100 nM each time.
With `Cc1cc(C(=O)N(C)C)cc(-c2nc3cc(Nc4cc(C)cc(N5C[C@@H]6C[C@H]5CN6CCO)n4)ncc3s2)c1` [Example 347], the IC50 (at HPK1; in assay [1]) was under 100 nM each time.
Turning to `Cc1cc(Nc2cc3nc(-c4cnn(CC5CC5)c4)sc3cn2)nc(N2C[C@@H]3C[C@H]2CN3CCO)c1` [Example 348], the IC50 (on HPK1; in assay [1]) was under 100 nM throughout.
Take `Cc1cc(Nc2cc3nc(-c4cccc(N5CCOCC5)c4)sc3cn2)nc(N2C[C@@H]3C[C@H]2CN3CCO)n1` [Example 349]: the IC50 at HPK1 is under 100 nM; in assay [1], 100 to 1000 nM.
Consider `Cc1cc(Nc2cc3nc(-c4cccc5c4C(C)(C)C(=O)N5)sc3cn2)nc(N2C[C@@H]3C[C@H]2CN3CCO)n1` [Example 350], for which the IC50 (at HPK1; in assay [1]) was under 100 nM each time.
For the molecule `COCc1c(-c2nc3cc(Nc4cc(C)nc(N5C[C@@H]6C[C@H]5CN6C)n4)ncc3s2)cnn1C` [Example 351], the IC50 (at HPK1; in assay [1]) was under 100 nM each time.
Take `Cc1cc(Nc2cc3nc(-c4cccc(C(=O)N5CCCCC5)c4)sc3cn2)nc(N2C[C@@H]3C[C@H]2CN3CCO)n1` [Example 352]: the IC50 (at HPK1; in assay [1]) was under 100 nM in each case.
For `Cc1cc(Nc2cc3nc(-c4ccnc(C(C)C)c4)sc3cn2)nc(N2C[C@@H]3C[C@H]2CN3CCO)n1` [Example 354], the IC50 (at HPK1; in assay [1]) was under 100 nM in each case.
In the case of `Cc1cc(Nc2cc3nc(-c4cnn(C(C)(C)C#N)c4)sc3cn2)nc(N2C[C@@H]3C[C@H]2CN3CCO)n1` [Example 355], the IC50 is under 100 nM on HPK1 and 100 to 1000 nM in assay [1].
The corresponding values for `Cc1cc(Nc2cc3nc(-c4cnn(CC5CC5)c4)sc3cn2)nc(N2C[C@@H]3C[C@H]2CN3CC(=O)N(C)C)n1` [Example 356] are 100 to 1000 nM and 1000 to 5000 nM.
With `OCCN1C[C@@H]2C[C@H]1CN2c1nccc(Nc2cc3nc(-c4cnn(CC5CC5)c4)sc3cn2)n1` [Example 357], the results for the IC50 (on HPK1; in assay [1]) were under 100 nM and 100 to 1000 nM, respectively.
Take `CCn1cc(-c2nc3cc(Nc4cc(C)nc(N5C[C@@H]6C[C@H]5CN6CCO)n4)ncc3s2)cn1` [Example 358]: the IC50 (at HPK1; in assay [1]) was under 100 nM throughout.
With `Cc1cc(Nc2cc3nc(-c4ncc(C)o4)sc3cn2)nc(N2C[C@@H]3C[C@H]2CN3CCO)n1` [Example 359], the IC50 (on HPK1; in assay [1]) was under 100 nM each time.
Consider `Cc1cc(Nc2cc3nc(-c4cccn5nccc45)sc3cn2)nc(N2C[C@@H]3C[C@H]2CN3CCO)n1` [Example 360], for which the IC50 was under 100 nM on HPK1 and 1000 to 5000 nM in assay [1].
The corresponding values for `Cc1cc(Nc2cc3nc(-c4cncc(C5CC5)c4)sc3cn2)nc(N2C[C@@H]3C[C@H]2CN3CCO)n1` [Example 361] are under 100 nM and 100 to 1000 nM.
The corresponding values for `Cc1cc(Nc2cc3nc(-c4cccc(C#Cc5cnn(C)c5)c4)sc3cn2)nc(N2C[C@@H]3C[C@H]2CN3CCO)n1` [Example 362] are under 100 nM and 1000 to 5000 nM.
Take `Cc1cc(Nc2cc3nc(-c4cnn(CC5CCCCO5)c4)sc3cn2)nc(N2C[C@@H]3C[C@H]2CN3C)n1` (some centres unmarked) [Example 363]: the values for the IC50 (on HPK1; in assay [1]) were under 100 nM and 100 to 1000 nM, respectively.
The corresponding values for `Cc1cc(Nc2cc3nc(-c4cnn(C5CC5)c4)sc3cn2)nc(N2C[C@@H]3C[C@H]2CN3CC2CC2)n1` [Example 364] are under 100 nM and under 100 nM.
The corresponding values for `Cc1cc(Nc2cc3nc(-c4cccc(-c5ccn(C)n5)c4)sc3cn2)nc(N2C[C@@H]3C[C@H]2CN3C)n1` [Example 365] are under 100 nM and 5000 to 25000 nM.
Turning to `Cc1cc(Nc2cc3nc(-c4cnn(C)c4C#N)sc3cn2)nc(N2C[C@@H]3C[C@H]2CN3C)n1` [Example 366], the IC50 at HPK1 was under 100 nM; in assay [1] it was 100 to 1000 nM.
With `Cc1cc(Nc2cc3nc(-c4cccc(S(=O)(=O)N5CCCCC5)c4)sc3cn2)nc(N2C[C@@H]3C[C@H]2CN3C)n1` [Example 367], the IC50 at HPK1 is under 100 nM; in assay [1], 1000 to 5000 nM.
Take `Cc1cc(Nc2cc3nc(-c4cnn(C)c4-c4ccccc4)sc3cn2)nc(N2C[C@@H]3C[C@H]2CN3C)n1` [Example 368]: the IC50 at HPK1 was under 100 nM; in assay [1], 100 to 1000 nM.
On the same counts, the results for `Cc1cc(Nc2cc3nc(-c4cnn(CS(C)(=O)=O)c4)sc3cn2)nc(N2C[C@@H]3C[C@H]2CN3CCO)n1` [Example 369] are under 100 nM and 100 to 1000 nM.
As for `Cc1cc(Nc2cc3nc(-c4cnn(CC5CC5)c4)sc3cn2)nc(N2C[C@@H]3C[C@H]2CN3CCO)n1` [Example 370], the IC50 (at HPK1; in assay [1]) was under 100 nM throughout.
Regarding `Cc1cc(Nc2cc3nc(-c4cnn(C(C)(C)C#N)c4)sc3cn2)nc(N2C[C@@H]3C[C@H]2CN3C)n1` [Example 371], the IC50 on HPK1 is under 100 nM; in assay [1], 100 to 1000 nM.
As to `Cc1cc(Nc2cc3nc(-c4cnn(C)c4C(=O)N(C)C)sc3cn2)nc(N2C[C@@H]3C[C@H]2CN3C)n1` [Example 372], the IC50 on HPK1 was under 100 nM; in assay [1], 100 to 1000 nM.
In the case of `Cc1cc(Nc2cc3nc(-c4ncc(C)o4)sc3cn2)nc(N2C[C@@H]3C[C@H]2CN3C)n1` [Example 373], the results for the IC50 (on HPK1; in assay [1]) were under 100 nM and 100 to 1000 nM, respectively.
On the same counts, the results for `Cc1cc(Nc2cc3nc(-c4ccc5c(c4)S(=O)(=O)N(C)C5)sc3cn2)nc(N2C[C@@H]3C[C@H]2CN3C)n1` [Example 374] are 100 to 1000 nM and 5000 to 25000 nM.
On the same counts, the results for `Cc1cc(Nc2cc3nc(-c4cnn(CC(F)F)c4)sc3cn2)nc(N2C[C@@H]3C[C@H]2CN3C)n1` [Example 375] are under 100 nM and 100 to 1000 nM.
For `COCCn1cc(-c2nc3cc(Nc4cc(C)nc(N5C[C@@H]6C[C@H]5CN6C)n4)ncc3s2)cn1` [Example 376], the results for the IC50 (on HPK1; in assay [1]) were under 100 nM and 100 to 1000 nM, respectively.
For `Cc1cc(Nc2cc3nc(-c4ccn5nccc5c4)sc3cn2)nc(N2C[C@@H]3C[C@H]2CN3C)n1` [Example 377], the IC50 is under 100 nM on HPK1 and 5000 to 25000 nM in assay [1].
The corresponding values for `Cc1cc(Nc2cc3nc(-c4cnn(CS(C)(=O)=O)c4)sc3cn2)nc(N2C[C@@H]3C[C@H]2CN3C)n1` [Example 378] are under 100 nM and 100 to 1000 nM.
